Test results: paper PMC10974294, “Addressing the ADME Challenges of Compound Loss in a PDMS-Based Gut-on-Chip Microphysiological System” (Pharmaceutics, 2024)
Where a name gives a salt, the structure may show the parent alone.

What was measured:
[1] = Compound loss (PDMS ad- and absorption) in cell-free organ-chips; assay type: in vitro ADME; conditions: for Compound Loss Bottom Channel (%) / Compound Loss Top Channel (%): 10 µM per drug in cocktail, outlet vs inlet after one hour at 200 µL/h, mean of two experiments
Description: S-1® Organ-Chips from Emulate Inc. (Boston, MA, USA) comprise 2 parallel channels (top and bottom) for cell culture, which are superimposed and separated via a porous membrane, all made of polydimethylsiloxane (PDMS). The 50 µm thick membrane contains pores of a diameter of 7 µm, which are spaced 40 µm apart from each other. In addition, 2 more channels, in which a vacuum can be applied to laterally stretch the cell culture channels, flank the cell culture channels horizontally. The top channel has a size of 1000 × 1000 µm (width × height), a culture area of 28 mm^2, and a volume of 28 µL. The bottom channel has a size of 1000 × 200 µm (width × height), a culture area of 24.5 mm^2, and a volume of 5.6 µL. Both channels share an area of 17.1 mm^2 of the porous membrane as a coculture area. To conduct experiments, each organ-chip is inserted into a cell culture container called Pod®, which connects 4 physically separated fluid reservoirs with the in- and outlets of the top and bottom channels. […] The Zoë module controls, as well as regulates, the vacuum and pressured gas flows generated by the Orb hub module, which also powers the Zoë module.
Compound loss experiments in cell-free organ-chips were performed with used chips after removal of the cells and washing-out of previously perfused compounds (Section 4). […] The compound concentrations in the outlets were measured via liquid chromatography-tandem mass spectrometry (LC-MS/MS, Section 2.8) after a period of one hour, with a flow rate of 200 µL/h (manufacturer’s instruction), and relatively compared to the inlet concentrations, and the difference was reported as the percent drug absorbed. The experiments were performed in duplicate.

[2] = Time-resolved testosterone loss and chip-specific clearance in cell-free organ-chips
Experimental: The cell-free organ-chips were previously utilized in experiments with cells and were prepared in the same way as described for the compound loss studies above. The Caco-2/HUVEC gut-on-chip was cultivated under the conditions described for standard cell culture until day 13. […] An introduction step with a high flow rate of 600 µL/h is recommended by the manufacturer to “saturate” the ad- and absorptions of compounds by the PDMS material. The necessity of this step will be discussed in Section 3 and Section 4. After the introduction step, both outlets were aspirated. […] During the sampling, the flow was stopped for a few seconds, a Pod®, which included a chip, was removed from the Zoë, a single chip removed from the Pod®, and samples were taken. The samples from the bottom outlet were used directly for bioanalytical quantification. The samples from the top inlet and top outlet were sampled from the respective reservoirs and diluted 1:50 (v/v) in transport buffer. The chips were subsequently dismantled from the Pods, and samples from the top channel and bottom channel were taken with a pipette via the outlets (Figure 1A). The samples from the top channel were diluted 1:50 (v/v) and the samples from the bottom channel 1:2 (v/v) in transport buffer.
The outlet reservoirs contained, therefore, perfusates from time zero to time point t. […] A period of 60 min was chosen because it was recommended by the manufacturer for diverse applications. […] For time points before 60 min, Ct,last was identical to Ct,cum by definition. Vt is the total volume of perfusate collected from time zero to t. Vt was calculated with the following equation:(4) Vt=t÷60×Q
The time profiles of Ct,last in the cell-free organ-chips and in the Caco-2/HUVEC gut-on-chip are shown in Figure 6A,B. Using Ct,last, the compound loss can be calculated in each putative collecting period of 60 min with the following equation:(5) Losst=Cinlet−Ct, last, top−Ct, last, bottom×Q

[3] = tested on: Caco-2/HUVEC gut-on-chip; experiment: Time-resolved testosterone loss, clearance, permeability and mass balance in Caco-2/HUVEC gut-on-chip
Experimental: The Caco-2/HUVEC gut-on-chip was prepared according to the Caco-2/HUVEC gut-on-chip protocol provided by Emulate Inc. Briefly, on day −1 of the protocol, the PDMS membrane was activated using Emulate reagent (ER) 1 dissolved in ER 2 solution at a concentration of 0.5 mg/mL. The top channels were filled with 50 µL and the bottom channels with 20 µL of ER 1 solution and then treated under UV light for 10 min. Next, activated ER 1 solution was aspirated from both channels and exchanged with fresh ER 1 solution after which the chips were again exposed to UV light for 5 min. The two channels were then subsequently washed with ER 2 solution followed by ice-cold PBS. After the PBS was fully aspirated from both channels, the chips were coated with 100 µg/mL Matrigel and 30 µg/mL collagen type I in PBS overnight at 37 °C. On day 0 of the protocol, both channels were washed with HUVEC culture medium before 0.14 × 10^6 viable HUVECs in 20 µL HUVEC culture medium were seeded in the bottom channel. The chips were inverted and HUVECs were allowed to adhere for at least 2 h to the porous PDMS membrane. Afterwards, the chips were inverted again, and the top channel was filled with enough Caco-2 culture medium to also cover the in- and outlets (~100 µL). Caco-2 cells were seeded in the top channel (0.15 × 10^6 viable cells in 50 µL Caco-2 culture medium). Caco-2 cells were also allowed to adhere for 2 h and then the channels were filled with the respective media and incubated overnight at 37 °C. On day 1, the inlet reservoirs of the Pods were filled with 3 mL of the respective degassed media, and the chips were connected to the Pods. The Pods were then placed into the Zoë module, and a flow at a rate of 30 µL/h (manufacturer’s instruction) was applied for both channels. From day 3 onwards, the HUVECs were cultured in HUVEC culture medium but with 0.5% FCS. On day 3, 10% lateral, peristalsis-like stretch was activated with a frequency of 0.15 Hz (manufacturer’s instruction). On day 8, the FCS concentration in the Caco-2 culture medium was reduced from 20% to 10%. Medium reservoirs were replenished with fresh medium 2–3 times per week.
The cell-free organ-chips were previously utilized in experiments with cells and were prepared in the same way as described for the compound loss studies above. The Caco-2/HUVEC gut-on-chip was cultivated under the conditions described for standard cell culture until day 13. […] An introduction step with a high flow rate of 600 µL/h is recommended by the manufacturer to “saturate” the ad- and absorptions of compounds by the PDMS material. […] The samples from the bottom outlet were used directly for bioanalytical quantification. […]
A quantitative bioanalysis was performed with a fit-for-purpose assay using protein precipitation followed by LC-MS/MS. […]

[4] = tested on: Caco-2/HUVEC gut-on-chip; experiment: Metabolite identification in Caco-2/HUVEC gut-on-chip; conditions: for fraction of the total amount of all metabolites (peak areas): testosterone 10 µM perfused 2 h at 200 µL/h, top and bottom outlets
Experimental: The analysis was performed on an LC-MS system containing a Vanquish UPLC (ThermoFisher Scientific, San Jose, CA, USA) coupled to an Orbitrap FusionTribrid high-resolution mass spectrometer (ThermoFisher Scientific). The structural elucidation was based on exact mass measurements in combination with the interpretation of fragment spectra.

[5] = tested on: Caco-2/HUVEC gut-on-chip; experiment: Bidirectional permeability assay in Caco-2/HUVEC gut-on-chip; assay type: cell-based, human; conditions: coperfusion with elacridar 10 µM in Caco-2/HUVEC gut-on-chip
Experimental: (§1) The Caco-2/HUVEC gut-on-chip was prepared according to the Caco-2/HUVEC gut-on-chip protocol provided by Emulate Inc. Briefly, on day −1 of the protocol, the PDMS membrane was activated using Emulate reagent (ER) 1 dissolved in ER 2 solution at a concentration of 0.5 mg/mL. The top channels were filled with 50 µL and the bottom channels with 20 µL of ER 1 solution and then treated under UV light for 10 min. Next, activated ER 1 solution was aspirated from both channels and exchanged with fresh ER 1 solution after which the chips were again exposed to UV light for 5 min. The two channels were then subsequently washed with ER 2 solution followed by ice-cold PBS. After the PBS was fully aspirated from both channels, the chips were coated with 100 µg/mL Matrigel and 30 µg/mL collagen type I in PBS overnight at 37 °C. On day 0 of the protocol, both channels were washed with HUVEC culture medium before 0.14 × 10^6 viable HUVECs in 20 µL HUVEC culture medium were seeded in the bottom channel. The chips were inverted and HUVECs were allowed to adhere for at least 2 h to the porous PDMS membrane. Afterwards, the chips were inverted again, and the top channel was filled with enough Caco-2 culture medium to also cover the in- and outlets (~100 µL). Caco-2 cells were seeded in the top channel (0.15 × 10^6 viable cells in 50 µL Caco-2 culture medium). […]

[6] = target: T1, P-gp (Homo sapiens, UniProt P08183); experiment: Inhibition of P-gp mediated Quinidine efflux in MDCK-MDR1 cells; assay type: cell-based; conditions: probe quinidine, Supplementary Table S2
T1 construct: expressed in transfected cells; host or cells: MDCK-MDR1 cells
T1 sequence (P08183 whole entry): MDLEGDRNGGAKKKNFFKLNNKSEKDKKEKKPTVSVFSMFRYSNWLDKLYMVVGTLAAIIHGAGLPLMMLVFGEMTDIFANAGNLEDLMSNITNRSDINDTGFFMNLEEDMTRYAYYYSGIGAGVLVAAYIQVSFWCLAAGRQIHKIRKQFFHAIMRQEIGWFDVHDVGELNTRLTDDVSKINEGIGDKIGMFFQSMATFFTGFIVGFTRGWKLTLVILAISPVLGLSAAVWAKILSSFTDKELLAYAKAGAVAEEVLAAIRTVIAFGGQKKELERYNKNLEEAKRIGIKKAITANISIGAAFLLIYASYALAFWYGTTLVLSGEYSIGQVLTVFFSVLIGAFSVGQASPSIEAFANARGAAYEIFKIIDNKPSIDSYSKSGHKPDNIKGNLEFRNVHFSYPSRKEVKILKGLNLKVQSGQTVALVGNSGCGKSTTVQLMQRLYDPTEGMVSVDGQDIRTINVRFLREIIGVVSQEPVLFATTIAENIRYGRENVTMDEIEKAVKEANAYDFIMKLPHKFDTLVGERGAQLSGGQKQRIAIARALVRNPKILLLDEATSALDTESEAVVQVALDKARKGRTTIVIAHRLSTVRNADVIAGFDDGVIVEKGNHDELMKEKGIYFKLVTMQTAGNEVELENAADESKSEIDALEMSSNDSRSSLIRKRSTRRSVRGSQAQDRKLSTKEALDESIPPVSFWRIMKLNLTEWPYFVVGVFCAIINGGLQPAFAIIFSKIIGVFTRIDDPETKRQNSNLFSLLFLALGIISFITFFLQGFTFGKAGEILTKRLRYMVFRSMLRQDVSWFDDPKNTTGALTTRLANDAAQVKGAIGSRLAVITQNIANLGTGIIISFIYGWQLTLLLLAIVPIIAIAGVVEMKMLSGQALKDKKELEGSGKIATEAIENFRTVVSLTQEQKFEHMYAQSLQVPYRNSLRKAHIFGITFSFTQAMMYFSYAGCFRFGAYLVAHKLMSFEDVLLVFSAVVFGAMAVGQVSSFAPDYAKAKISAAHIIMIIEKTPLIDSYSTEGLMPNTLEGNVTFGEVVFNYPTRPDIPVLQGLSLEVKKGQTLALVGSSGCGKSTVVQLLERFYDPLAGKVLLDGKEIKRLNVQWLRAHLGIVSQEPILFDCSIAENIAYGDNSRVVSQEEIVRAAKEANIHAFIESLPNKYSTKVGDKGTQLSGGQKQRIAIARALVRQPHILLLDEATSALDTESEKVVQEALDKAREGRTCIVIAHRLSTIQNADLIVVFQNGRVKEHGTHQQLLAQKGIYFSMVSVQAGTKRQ

[7] = tested on: P-gp; experiment: Bidirectional permeability assay in Caco-2/HUVEC gut-on-chip; assay type: cell-based, human; conditions: human, pH 7.4; Caco-2/HUVEC gut-on-chip, day 10; 10 µM; no inhibitor; read-out: efflux ratio, control
Experimental: as §1

[8] = tested on: P-gp; experiment: in vitro; conditions: human, Caco-2
Experimental: Either the top (A–B direction) or bottom (B–A direction) channel served as the donor compartments and the respective other channels (A–B: bottom; B–A: top) as receiver compartments. […] Following an Emulate protocol, dosing of a cocktail of both compounds at 10 µM in transporter buffer was initiated via a drug introduction step (flow rate of 600 µL/h for 10 min), after which the outlets were aspirated. The outlet concentrations were determined after one hour (flow rate: 200 µL/h). […] The samples from the receiver outlets were used for the bioanalysis without dilution. The samples from the donor inlets, as well as outlets, were diluted 1:50 (v/v) in transport buffer. All samples were spiked with the internal standard and used for the LC-MS/MS analysis, as described in Section 2.8.

[9] = cell-free organ-chips, testosterone 10 µM, 200 µL/h

C[C@]12CC[C@H]3[C@@H](CCC4=CC(=O)CC[C@@]43C)[C@@H]1CC[C@@H]2O [Testosterone]
Compound Loss Bottom Channel (%) ([1]; cell-free organ-chips): 35.1%
Compound Loss Top Channel (%) ([1]; cell-free organ-chips): 37.6%
final testosterone concentration in the bottom channel and outlet ([2]; cell-free organ-chips, 10 µM via top inlet, 200 µL/h, 135 min): < 1000 nM
testosterone concentration in the top channel and outlet ([2]; cell-free organ-chips, 10 µM via top inlet, 200 µL/h, reached over 135 min): ~ 7000 nM
clearance (chip-specific / chip-intrinsic clearance) ([2]; cell-free organ-chips, collecting period 75-135 min, flow 200 µL/h): 11.7 µL/h
compound loss during the first 60 min of the collecting period [2, 9]: 719.1 pmol/h
compound loss in the last 60 min of the collecting period [2, 9]: 116.5 pmol/h
compound loss corresponding to chip-intrinsic clearance ([2]; corresponds to 11.7 µL/h at flow 200 µL/h): 6%
maximum testosterone concentration (top channel and outlet) ([3]; Caco-2/HUVEC gut-on-chip, 10 µM via top inlet, 200 µL/h, 135 min): < 2000 nM
time to steady state ([3]; Caco-2/HUVEC gut-on-chip, first sample time point): ≤ 15 min
clearance (total) in Caco-2/HUVEC gut-on-chip ([3]; collecting period 75-135 min, flow 200 µL/h): 172.1 µL/h
metabolic clearance in the gut-on-chip ([3]; total clearance minus chip-specific clearance, flow 200 µL/h): 160.4 µL/h
CYP3A4-related hydroxylation of testosterone ([4]; Caco-2/HUVEC gut-on-chip): did not detect

CCOC(=O)C1=C(C)NC(C)=C(C(=O)OC)C1c1cccc(Cl)c1Cl (centres unmarked) [Felodipine]
Compound Loss Bottom Channel (%) ([1]; cell-free organ-chips): 84.0%
Compound Loss Top Channel (%) ([1]; cell-free organ-chips): 79.0%

O=C1[C@H](CC[C@H](O)c2ccc(F)cc2)[C@@H](c2ccc(O)cc2)N1c1ccc(F)cc1 [Ezetemibe]
Compound Loss Bottom Channel (%) ([1]; cell-free organ-chips): 1.3%
Compound Loss Top Channel (%) ([1]; cell-free organ-chips): 0.0%

O[C@@H](COc1cccc2ncccc12)CN1CCN([C@@H]2c3ccccc3[C@@H]3[C@H](c4ccccc42)C3(F)F)CC1 [Zosuquidar]
compound loss after 1 h of perfusion ([1]; cell-free organ-chips, 10 µM): ~100%
Compound Loss Bottom Channel (%) ([1]; cell-free organ-chips): 99.0%
Compound Loss Top Channel (%) ([1]; cell-free organ-chips): 97.0%

CC(C)c1nc(N(C)S(C)(=O)=O)nc(-c2ccc(F)cc2)c1/C=C/[C@@H](O)C[C@@H](O)CC(=O)O [Rosuvastatin]
Compound Loss Bottom Channel (%) ([1]; cell-free organ-chips): 7.9%
Compound Loss Top Channel (%) ([1]; cell-free organ-chips): 12.6%

Cc1ncc2n1-c1ccc(Cl)cc1C(c1ccccc1F)=NC2 [Midazolam]
Compound Loss Bottom Channel (%) ([1]; cell-free organ-chips): 67.8%
Compound Loss Top Channel (%) ([1]; cell-free organ-chips): 72.1%

COc1cc2c(cc1OC)CN(CCc1ccc(NC(=O)c3cccc4c(=O)c5cccc(OC)c5[nH]c34)cc1)CC2 [Elacridar]
inhibition of the efflux of Apafant [5]: completely
IC90 [6]: ~1000 nM

C=C[C@H]1C[N@@]2CC[C@H]1C[C@@H]2[C@@H](O)c1ccnc2ccc(OC)cc12 [Quinidine]
Compound Loss Bottom Channel (%) ([1]; cell-free organ-chips): 13.4%
Compound Loss Top Channel (%) ([1]; cell-free organ-chips): 0.3%

CC(C)c1c(C(=O)Nc2ccccc2)c(-c2ccccc2)c(-c2ccc(F)cc2)n1CC[C@@H](O)C[C@@H](O)CC(=O)O [Atorvastatin]
Compound Loss Bottom Channel (%) ([1]; cell-free organ-chips): 7.4%
Compound Loss Top Channel (%) ([1]; cell-free organ-chips): 18.9%

C[C@]12CC[C@H]3[C@@H](CCC4=CC(=O)CC[C@@]43C)[C@@H]1CC[C@@H]2OS(=O)(=O)O [testosterone sulfate]
fraction of the total amount of all metabolites (peak areas) [4]: 0.3%

CC(C)(C)NC(=O)[C@@H]1C[C@@H]2CCCC[C@@H]2CN1C[C@@H](O)[C@H](Cc1ccccc1)NC(=O)[C@H](CC(N)=O)NC(=O)c1ccc2ccccc2n1 [Saquinavir]
Compound Loss Bottom Channel (%) ([1]; cell-free organ-chips): 21.9%
Compound Loss Top Channel (%) ([1]; cell-free organ-chips): 48.0%

CCN(CC)CC#CCOC(=O)C(O)(c1ccccc1)C1CCCCC1 (centres unmarked) [Oxybutynin]
Compound Loss Bottom Channel (%) ([1]; cell-free organ-chips): 100.0%
Compound Loss Top Channel (%) ([1]; cell-free organ-chips): 99.9%
PDMS compound loss during the one-hour period (in words) ([1]; cell-free organ-chips, 10 µM, one hour, 200 µL/h, top and bottom channels): complete

C[C@]12CC[C@H]3[C@@H](CCC4=CC(=O)CC[C@@]43C)[C@@H]1CC[C@@H]2O[C@@H]1O[C@H](C(=O)O)[C@@H](O)[C@H](O)[C@H]1O [testosterone glucuronide]
fraction of the total amount of all metabolites (peak areas) [4]: 3.2%

Cc1c(-c2ccc(O)cc2)n(Cc2ccc(OCCN3CCCCCC3)cc2)c2ccc(O)cc12 [Bazedoxifene]
Compound Loss Bottom Channel (%) ([1]; cell-free organ-chips): 26.0%
Compound Loss Top Channel (%) ([1]; cell-free organ-chips): 56.4%

C[C@]12CCC(=O)C=C1CC[C@@H]1[C@@H]2CC[C@]2(C)C(=O)CC[C@@H]12 [4-androstenedione]
compound loss in cell-free organ-chips (in words, relative to testosterone) ([1]; Supplementary Table S1): much higher compound loss
fraction of the total amount of all metabolites (peak areas) [4]: 96.5%

Cc1nnc2n1-c1sc(CCC(=O)N3CCOCC3)cc1C(c1ccccc1Cl)=NC2 [Apafant]
Compound Loss Bottom Channel (%) ([1]; cell-free organ-chips): 8.0%
Compound Loss Top Channel (%) ([1]; cell-free organ-chips): 15.0%
efflux ratio at 1 h, 10 µM [7]: 22.2
efflux ratio [8]: 12.4 ± 7.8

O=C1CC2(CCCC2)CC(=O)N1CCCCN1CCN(c2ncccn2)CC1 [Busiprone]
Compound Loss Bottom Channel (%) ([1]; cell-free organ-chips): 30.5%
Compound Loss Top Channel (%) ([1]; cell-free organ-chips): 33.1%
